{"source": "paper PMC6050274", "about": "“Buparlisib is a brain penetrable pan-PI3K inhibitor” (Scientific Reports, 2018)", "key": {"human P-gp (ABCB1/MDR1)": {"target": "T1, human P-gp (ABCB1/MDR1) (Homo sapiens, UniProt P08183)", "T1 construct": "expressed in transfected cells; host or cells: LLC-PK1 (LLC-MDR1)", "T1 sequence (P08183 whole entry)": "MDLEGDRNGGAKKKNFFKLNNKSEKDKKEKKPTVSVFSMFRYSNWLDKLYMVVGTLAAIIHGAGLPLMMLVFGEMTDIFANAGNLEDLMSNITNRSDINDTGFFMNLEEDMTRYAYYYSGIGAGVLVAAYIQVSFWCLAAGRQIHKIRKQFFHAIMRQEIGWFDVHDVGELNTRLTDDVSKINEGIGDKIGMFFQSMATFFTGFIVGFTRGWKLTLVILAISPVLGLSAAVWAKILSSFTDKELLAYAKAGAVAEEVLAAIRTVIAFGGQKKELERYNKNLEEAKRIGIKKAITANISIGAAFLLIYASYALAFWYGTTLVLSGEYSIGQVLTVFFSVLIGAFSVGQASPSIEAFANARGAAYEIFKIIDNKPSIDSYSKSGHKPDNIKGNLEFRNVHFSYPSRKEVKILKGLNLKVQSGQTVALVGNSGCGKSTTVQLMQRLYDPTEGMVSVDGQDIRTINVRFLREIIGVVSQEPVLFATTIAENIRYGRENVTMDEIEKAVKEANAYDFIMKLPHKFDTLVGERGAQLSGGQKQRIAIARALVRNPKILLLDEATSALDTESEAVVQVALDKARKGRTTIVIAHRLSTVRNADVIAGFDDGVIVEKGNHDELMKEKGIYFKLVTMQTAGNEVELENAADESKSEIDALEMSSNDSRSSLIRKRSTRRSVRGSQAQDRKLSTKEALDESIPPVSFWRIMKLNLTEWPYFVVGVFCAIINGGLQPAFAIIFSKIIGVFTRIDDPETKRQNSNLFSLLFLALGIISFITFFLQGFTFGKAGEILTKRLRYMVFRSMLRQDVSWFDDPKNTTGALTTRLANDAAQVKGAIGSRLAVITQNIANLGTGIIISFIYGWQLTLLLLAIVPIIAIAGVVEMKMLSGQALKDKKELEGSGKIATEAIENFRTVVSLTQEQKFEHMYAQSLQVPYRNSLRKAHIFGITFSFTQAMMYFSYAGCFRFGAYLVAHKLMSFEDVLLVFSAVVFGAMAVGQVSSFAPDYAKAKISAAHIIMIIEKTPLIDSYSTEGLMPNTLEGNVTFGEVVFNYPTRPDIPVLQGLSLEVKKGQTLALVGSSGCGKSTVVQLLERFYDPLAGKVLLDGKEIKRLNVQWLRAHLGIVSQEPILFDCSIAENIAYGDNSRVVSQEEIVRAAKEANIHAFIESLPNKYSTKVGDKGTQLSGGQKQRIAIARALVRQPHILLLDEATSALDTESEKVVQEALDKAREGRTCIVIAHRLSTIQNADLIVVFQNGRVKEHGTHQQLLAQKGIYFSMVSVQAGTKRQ", "test": "Concentration equilibrium transport assay (CETA), LLC-MDR1", "assay_type": "in vitro ADME", "conditions": "100 nM", "source_text": "Figure 1 Analysis of buparlisib substrate affinity for ABC transporters using in vitro transport assays. (A) The chemical structure of buparlisib. (B) A conventional transport assay (CTA) using LLC-PK1 cells in presence of zosuquidar to block endogenous (porcine) P-gp activity. […] (C) Concentration equilibrium transport assays (CETAs) using MDCK or LLC cells that overexpress murine BCRP, (Bcrp1), human BCRP, murine P-gp (Mdr1a) or human P-gp (MDR1). […] The P-gp inhibitor zosuquidar was used in all MDCK cell lines to inhibit endogenous P-gp activity and in LLC cell lines to validate possible P-gp-mediated translocations. […]\nConventional bidirectional transport assays (CTAs) and concentration equilibrium transport assays (CETAs) were performed as described previously. […] Transwell leakiness was determined as Carboxyl-[^14C]-inulin translocation exceeding 1.5% per hour and these wells were excluded from the analysis. […]\nAs described in detail before, CETA results were analysed with the General linear model repeated measures procedure of SPSS (v22; SPSS Inc, Chicago, IL)[25]. […] The standard error of the oral bioavailability was calculated using the formula below: SEF=F(SEAUCp.o./AUCp.o.)^2+(SEAUCi.v./AUCi.v.)^2 Buparlisib concentrations in WT and transporter knockout mice in vivo were compared using one-way analysis of variance followed by post hoc Bonferroni tests. […]"}, "[1]": {"test": "Plasma pharmacokinetics after i.v. and oral administration in male and female mice", "assay_type": "in vivo, FVB mice", "conditions": "for bioavailability: p.o. (5 mg/kg) vs i.v. (2 mg/kg), read-out: F (oral bioavailability); for Vd/F: read-out: Vz/F", "method": "Finally, we studied the pharmacokinetics of buparlisib in male and female mice and assessed the oral bioavailability in both genders by comparing the area-under-the-plasma concentration-time-curves (AUCs) following intravenous and oral administration. Both after oral and i.v. administration there was no difference in pharmacokinetics between male and female mice (Fig. 3C, Table 1).\n(§1) The pharmacokinetics of buparlisib were analysed in WT, Abcg2^−/−, Abcb1a/b^−/− and Abcb1a/b; Abcg2^−/− FVB mice. All knockout mice strains have been developed within our institute[41]–[43]. For i.v. administration, buparlisib was dissolved in DMSO and injected at a dose of 2 mg/kg. For oral administration, buparlisib was formulated in DMSO:Cremophor EL:water (1:1:8 v/v/v) and administered at 1, 2 or 5 mg/kg as indicated. Tail vein bleeding was used to collect blood at intermediate time points, whereas at the last time point blood was drawn by cardiac puncture and various tissue were collected. Plasma was obtained from whole blood by centrifugation (5 min, 5,000 rpm, 4 °C). After weighing, tissues were homogenized using a FastPrep®-24 (MP-Biomedicals, NY) in 1% (w/v) bovine serum albumin in water. Buparlisib was extracted from plasma and tissue homogenate by liquid-liquid extraction with ethyl acetate using AZD8055 as an internal standard.\n(§2) Buparlisib was measured in samples from in vitro transport assays and in vivo pharmacokinetic studies using an LC-MS/MS system comprised of an UltiMate 3000 LC Systems (Dionex, Sunnyvale, CA) and an API 4000 mass spectrometer (Sciex, Framingham, MA). Samples were run through a Securityguard C18 pre-column (Phenomenex, Utrecht, The Netherlands) prior to separation on a ZORBAX Extend-C18 column (Agilent, Santa Clara, CA). Elution was done using a in a 5 minute gradient from 20% to 95% B (mobile phase A was 0.1% HCOOH in water (v/v) and mobile phase B was methanol). 95% B was maintained for 3 min followed by re-equilibration at 20% B. Multiple reaction monitoring was performed at 411.3/367.2 (buparlisib) and 418.2/138.4 (AZD8055). Analyst® 1.6.2 software (AB Sciex; Foster City, CA) was used for system control and data analysis.\n(§3) As described in detail before, CETA results were analysed with the General linear model repeated measures procedure of SPSS (v22; SPSS Inc, Chicago, IL)[25]. PK solver was used to determine pharmacokinetic parameters. The standard error of the oral bioavailability was calculated using the formula below: SEF=F(SEAUCp.o./AUCp.o.)^2+(SEAUCi.v./AUCi.v.)^2 Buparlisib concentrations in WT and transporter knockout mice in vivo were compared using one-way analysis of variance followed by post hoc Bonferroni tests. Statistical differences between the buparlisib PK parameters in male and female mice were calculated as Bonferroni corrected p-values using multiple Student’s t-tests. Differences were considered statistically significant when p < 0.05."}, "[2]": {"test": "Brain and tissue penetration after i.v. administration in wildtype and P-gp/BCRP knockout mice", "assay_type": "in vivo, FVB mice", "conditions": "2 mg/kg i.v.", "method": "To study whether P-gp and BCRP attenuate buparlisib brain penetration in vivo, we measured the brain and plasma concentration in wildtype (WT), Abcg2^−/−, Abcb1a/b^−/− and Abcb1a/b; Abcg2^−/− mice 1 hour after i.v. administration of 2 mg/kg buparlisib.\nFigure 2 The impact of P-gp and BCRP on the brain and tissue penetration of buparlisib. Buparlisib was administered intravenously to wildtype, Abcg2^−/−, Abcb1a/b^−/− and Abcb1a/b;Abcg2^−/− mice at a dose of 2 mg/kg. One hour after injection, blood and tissues were collected for LC-MS/MS analysis. […] All data are represented as mean ± SD (n = 4).\nas §1, §2, §3"}, "[3]": {"conditions": "FVB, mouse, plasma, iv, i.v. (2 mg/kg), female"}, "[4]": {"conditions": "FVB, mouse, plasma, iv, i.v. (2 mg/kg), male"}, "[5]": {"conditions": "FVB, mouse, plasma, po, p.o. (5 mg/kg), female"}, "[6]": {"conditions": "FVB, mouse, plasma, po, p.o. (5 mg/kg), male"}}, "note": "Values joined by “and” are separate entries in the source; they are usually repeats but may differ in a detail not shown here. Identical values can stand only once. Like-named read-outs stand apart in the source and are kept apart here.", "data": [{"smiles": "Nc1cc(C(F)(F)F)c(-c2cc(N3CCOCC3)nc(N3CCOCC3)n2)cn1", "note": "[buparlisib]", "values": [{"measurement": "substrate of human P-gp", "setting": "human P-gp (ABCB1/MDR1)", "value": "not a substrate"}, {"measurement": "Cmax", "setting": "[1]; [3]", "value": "1.9 ± 0.41", "unit": "µg/mL"}, {"measurement": "half-life", "setting": "[1]; [3]", "value": "1.6 ± 0.07", "unit": "h"}, {"measurement": "Vd", "setting": "[1]; FVB, mouse, plasma, iv, i.v. (2 mg/kg), female, read-out: Vz", "value": "0.86 ± 0.14", "unit": "L/kg"}, {"measurement": "Cmax", "setting": "[1]; [4]", "value": "2.1 ± 0.19", "unit": "µg/mL"}, {"measurement": "half-life", "setting": "[1]; [4]", "value": "1.67 ± 0.07", "unit": "h"}, {"measurement": "Vd", "setting": "[1]; FVB, mouse, plasma, iv, i.v. (2 mg/kg), male, read-out: Vz", "value": "0.8 ± 0.23", "unit": "L/kg"}, {"measurement": "concentration at 24 h", "setting": "[1]; FVB, mouse, plasma, oral, mice, 5 mg/kg, read-out: plasma level after 24 h", "value": "< 1 ng/mL and < 2.4 nM"}, {"measurement": "bioavailability", "setting": "[1]; FVB, mouse, plasma, oral, female", "value": "112 ± 21.1", "unit": "%"}, {"measurement": "bioavailability", "setting": "[1]; FVB, mouse, plasma, oral, male", "value": "103 ± 26.1", "unit": "%"}, {"measurement": "CL/F", "setting": "[1]; [5]", "value": 0.32, "unit": "L/h/kg"}, {"measurement": "Cmax", "setting": "[1]; [5]", "value": "3 ± 0.49", "unit": "µg/mL"}, {"measurement": "Tmax", "setting": "[1]; [5]", "value": "0.67 ± 0.39", "unit": "h"}, {"measurement": "half-life", "setting": "[1]; [5]", "value": "1.4 ± 0.04", "unit": "h"}, {"measurement": "Vd/F", "setting": "[1]; [5]", "value": "0.63 ± 0.08", "unit": "L/kg"}, {"measurement": "CL/F", "setting": "[1]; [6]", "value": 0.31, "unit": "L/h/kg"}, {"measurement": "Cmax", "setting": "[1]; [6]", "value": "3.3 ± 1.3", "unit": "µg/mL"}, {"measurement": "Tmax", "setting": "[1]; [6]", "value": 1, "unit": "h"}, {"measurement": "half-life", "setting": "[1]; [6]", "value": "1.44 ± 0.06", "unit": "h"}, {"measurement": "Vd/F", "setting": "[1]; [6]", "value": "0.64 ± 0.03", "unit": "L/kg"}, {"measurement": "oral bioavailability", "setting": "[1]; both genders, dose-corrected AUC oral vs i.v.", "value": "complete"}, {"measurement": "Vd", "setting": "[1]; both sexes, FVB, mouse, plasma, intravenous, 2 mg/kg, mice, read-out: volume of distribution", "value": "< 1", "unit": "L/kg"}, {"measurement": "CL", "setting": "[1]; i.v. (2 mg/kg), female", "value": "0.37 ± 0.06", "unit": "L/kg^.h"}, {"measurement": "Plasma AUC 0-∞", "setting": "[1]; i.v. (2 mg/kg), female", "value": "5600 ± 860", "unit": "ng/ml^.h"}, {"measurement": "CL", "setting": "[1]; i.v. (2 mg/kg), male", "value": "0.33 ± 0.09", "unit": "L/kg^.h"}, {"measurement": "Plasma AUC 0-∞", "setting": "[1]; i.v. (2 mg/kg), male", "value": "6300 ± 1500", "unit": "ng/ml^.h"}, {"measurement": "difference in pharmacokinetics between male and female mice", "setting": "[1]; oral and i.v. administration", "value": "no difference"}, {"measurement": "Plasma AUC 0-∞", "setting": "[1]; p.o. (5 mg/kg), female", "value": "16000 ± 1700", "unit": "ng/ml^.h"}, {"measurement": "Plasma AUC 0-∞", "setting": "[1]; p.o. (5 mg/kg), male", "value": "16000 ± 1200", "unit": "ng/ml^.h"}, {"measurement": "brain concentration compared with liver, kidney and spleen concentrations", "setting": "[2]; 1 hour", "value": "slightly higher"}, {"measurement": "kidney level compared with concurrent plasma level", "setting": "[2]; 1 hour", "value": "lower"}, {"measurement": "liver level compared with concurrent plasma level", "setting": "[2]; 1 hour", "value": "equal"}, {"measurement": "spleen level compared with concurrent plasma level", "setting": "[2]; 1 hour", "value": "lower"}, {"measurement": "differences among mouse strains in plasma and brain concentrations", "setting": "[2]; 1 hour, WT vs transporter knockout mice", "value": "No differences"}, {"measurement": "Kp at 1 h", "setting": "[2]; FVB, mouse, brain/plasma, intravenous, all strains (WT, Abcg2-/-, Abcb1a/b-/-, Abcb1a/b;Abcg2-/-), read-out: brain-plasma ratio", "value": "1.5 to 2"}]}]}
